Measurements reported in US20220354974A1, “REAGENTS AND METHODS FOR LABELING MOLECULES WITH ASTATINE ISOTOPES IN HIGHER OXIDATION STATES” (priority 2021, published 2022).

Experiment: Stability in solution of 211At-labeling products of biotin-sarcosine-bis-B10 by radio-HPLC
Type: physicochemical
Experimental: FIGS. 22A-22D compare radio-HPLC chromatograms of reaction product from ^211At labeling of Compound 8 (see FIG. 21): 0.1 mg of Compound 8 was reacted with ^211At in 5% HOAc in MeOH/H2O without ChT at room temperature for 5 min (22A) and the reaction mixture sat at room temperature for about 1 h (22B); and 0.1 mg of Compound 8 was reacted with ^211At in 5% HOAc in MeOH/H2O with 10 μg of ChT at room temperature for 3 min. (22C) the reaction mixture after setting at room temperature for about 2 h (22D).
In an ^211At-labeling reaction with biotin-sarcosine-bis-B10, 8, a solution of [^211At]NaAt in 5% HOAc in MeOH/H2O was reacted at room temperature for 5 min without an oxidant. The reaction was quenched with 10 μL of 1 mg/mL Na2S2O5 (a reductant). The reaction provided one major ^211At labeled product (95%) as shown the radio-HPLC peak at about 10.1 min (FIG. 22A). […] In another ^211At-labeling reaction, the same reaction conditions as above were used except a chemical oxidant chloramine-T (ChT) was added to the reaction solution. The reaction with ChT provided multiple products that were eluted from 9-11 min. After sitting at room temperature for 2 h, a significant amount of free ^211At was observed (29%) (FIG. 22D).

free 211At observed (labeled with ChT, after sitting at room temperature for 2 h): 29%
change in 211At-labeled product in solution (labeled without oxidant, quenched, 1 h at room temperature): No change
Substance: 3,5-B10H9-dioxa-Ph-Sar-Biotin [Compound 8]
